# pIC50: −log10 of the molar value. Where a name gives a salt, the structure may show the parent alone.
# How the values were obtained:
# JH2 domain of human Tyk2 = JH2 domain of human Tyk2 (Homo sapiens (Human), UniProt P29597); assay: JH2 Biochemical Assay (TR-FRET probe displacement); assay type: binding; conditions: TR-FRET probe displacement, JH2 domain of human Tyk2
# Tyk2 = Tyk2 (Homo sapiens (Human), UniProt P29597); assay: pSTAT4 Cell Assay (MSD, NK92 cells); assay type: cell-based; conditions: MSD
# Tyk2, sequence (P29597 whole entry, the tested form may be a part): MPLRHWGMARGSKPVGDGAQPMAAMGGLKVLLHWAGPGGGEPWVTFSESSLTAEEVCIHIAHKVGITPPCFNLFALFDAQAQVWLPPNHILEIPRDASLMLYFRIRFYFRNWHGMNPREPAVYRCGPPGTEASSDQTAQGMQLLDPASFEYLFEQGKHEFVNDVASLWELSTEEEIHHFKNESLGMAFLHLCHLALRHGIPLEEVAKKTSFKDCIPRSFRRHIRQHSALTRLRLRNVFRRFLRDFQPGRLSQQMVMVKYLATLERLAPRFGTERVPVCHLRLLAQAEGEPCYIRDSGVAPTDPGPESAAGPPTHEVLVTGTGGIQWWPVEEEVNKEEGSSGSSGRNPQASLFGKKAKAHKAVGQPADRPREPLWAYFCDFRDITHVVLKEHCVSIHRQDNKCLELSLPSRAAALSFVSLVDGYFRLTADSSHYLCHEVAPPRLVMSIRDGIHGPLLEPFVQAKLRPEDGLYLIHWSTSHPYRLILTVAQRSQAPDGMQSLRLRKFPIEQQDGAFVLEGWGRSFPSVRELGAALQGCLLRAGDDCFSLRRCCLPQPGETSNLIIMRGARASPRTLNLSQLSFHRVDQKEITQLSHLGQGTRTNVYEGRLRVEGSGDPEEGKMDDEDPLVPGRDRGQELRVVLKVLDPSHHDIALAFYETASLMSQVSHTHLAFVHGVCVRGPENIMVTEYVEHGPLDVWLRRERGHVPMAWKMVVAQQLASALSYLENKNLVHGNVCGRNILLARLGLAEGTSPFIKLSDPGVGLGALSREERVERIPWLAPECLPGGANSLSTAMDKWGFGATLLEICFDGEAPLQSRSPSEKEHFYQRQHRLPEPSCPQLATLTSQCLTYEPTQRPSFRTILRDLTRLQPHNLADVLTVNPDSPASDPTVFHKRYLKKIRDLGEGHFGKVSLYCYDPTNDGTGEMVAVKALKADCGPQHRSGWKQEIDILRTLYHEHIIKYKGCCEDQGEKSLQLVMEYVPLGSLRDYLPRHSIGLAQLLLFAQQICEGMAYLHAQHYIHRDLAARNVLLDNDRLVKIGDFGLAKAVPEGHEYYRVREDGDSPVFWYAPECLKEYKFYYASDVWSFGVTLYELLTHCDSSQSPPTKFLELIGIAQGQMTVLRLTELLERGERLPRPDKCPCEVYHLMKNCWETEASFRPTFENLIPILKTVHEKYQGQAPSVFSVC
# JH2 domain of human Tyk2, sequence (P29597 575-876): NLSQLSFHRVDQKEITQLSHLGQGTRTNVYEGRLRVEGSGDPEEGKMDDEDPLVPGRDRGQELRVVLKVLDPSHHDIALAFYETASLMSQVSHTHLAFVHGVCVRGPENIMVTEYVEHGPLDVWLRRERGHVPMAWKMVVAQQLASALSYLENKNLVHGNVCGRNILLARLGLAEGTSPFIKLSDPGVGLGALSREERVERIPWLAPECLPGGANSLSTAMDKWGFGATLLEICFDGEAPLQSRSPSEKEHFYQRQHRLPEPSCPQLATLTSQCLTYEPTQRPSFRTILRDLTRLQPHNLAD
Compound,pIC50 (JH2 domain of human Tyk2),pIC50 (Tyk2)
"COCCOc1cnc(NC(C)=O)cc1Nc1cccc(C(C)(F)F)n1 [Example 56, N-(4-((6-(1,1-difluoroethyl)pyridin-2-yl)amino)-5-(2-methoxyethoxy)pyridin-2-yl)acetamide]",≥ 8.00,≥ 8.00
"CC(=O)Nc1cc(Nc2cc(C)nc(C(C)(F)F)n2)c(OCC2(C(F)(F)F)CC2)cn1 [Example 57, N-(4-((2-(1,1-difluoroethyl)-6-methylpyrimidin-4-yl)amino)-5-((1-(trifluoromethyl)cyclopropyl)methoxy)pyridin-2-yl)acetamide]",≥ 8.00,7.00 to 8.00
"COCC(C)Oc1cnc(NC(C)=O)cc1Nc1cc(C)nc(C(C)(F)F)n1 (centres unmarked) [Example 59, N-(4-((2-(1,1-difluoroethyl)-6-methylpyrimidin-4-yl)amino)-5-((1-methoxypropan-2-yl)oxy)pyridin-2-yl)acetamide]",≥ 8.00,6.00 to 7.00
"COC(C)COc1cnc(NC(C)=O)cc1Nc1cc(C)nc(C(C)(F)F)n1 (centres unmarked) [Example 60, N-(4-((2-(1,1-difluoroethyl)-6-methylpyrimidin-4-yl)amino)-5-(2-methoxypropoxy)pyridin-2-yl)acetamide]",≥ 8.00,7.00 to 8.00
"CC(=O)Nc1cc(Nc2cc(C)nc(C(C)(F)F)n2)c(OCC2COC2)cn1 [Example 61, N-(4-((2-(1,1-difluoroethyl)-6-methylpyrimidin-4-yl)amino)-5-(oxetan-3-ylmethoxy)pyridin-2-yl)acetamide]",≥ 8.00,7.00 to 8.00
"CC(=O)Nc1cc(Nc2cc(C)nc(C(C)(F)F)n2)c(OCC2CCC2)cn1 [Example 62, N-(5-(cyclobutylmethoxy)-4-((2-(1,1-difluoroethyl)-6-methylpyrimidin-4-yl)amino)pyridin-2-yl)acetamide]",≥ 8.00,7.00 to 8.00
"COCCOc1cnc(NC(C)=O)cc1Nc1cc(C)cc(C(C)(F)F)n1 [Example 63, N-(4-((6-(1,1-difluoroethyl)-4-methylpyridin-2-yl)amino)-5-(2-methoxyethoxy)pyridin-2-y1)acetamide]",≥ 8.00,≥ 8.00
"CC(=O)Nc1cc(Nc2cccc(C(C)(F)F)n2)c(OCCN2CCCC2)cn1 [Example 64, N-(4-((6-(1,1-difluoroethyl)pyridin-2-yl)amino)-5-(2-(pyrrolidin-1-yl)ethoxy)pyridin-2-yl)acetamide]",≥ 8.00,7.00 to 8.00
"CCc1cc(Nc2cc(NC(C)=O)ncc2OCCOC(F)F)nc(C(C)(F)F)n1 [Example 68, N-(4-((2-(1,1-difluoroethyl)-6-ethylpyrimidin-4-yl)amino)-5-(2-(difluoromethoxy)ethoxy)pyridin-2-yl)acetamide]",≥ 8.00,≥ 8.00
"CCc1cc(Nc2cc(NC(C)=O)ncc2OCCN2CCOCC2)nc(C(C)(F)F)n1 [Example 70, N-(4-((2-(1,1-difluoroethyl)-6-ethylpyrimidin-4-yl)amino)-5-(2-morpholinoethoxy)pyridin-2-yl)acetamide]",≥ 8.00,≥ 8.00
"CCc1cc(Nc2cc(NC(C)=O)ncc2OCCN2CCN(C)CC2)nc(C(C)(F)F)n1 [Example 71, N-(4-((2-(1,1-difluoroethyl)-6-ethylpyrimidin-4-yl)amino)-5-(2-(4-methylpiperazin-1-yl)ethoxy)pyridin-2-yl)acetamide]",≥ 8.00,≥ 8.00
"COCCOc1cnc(NC(C)=O)cc1Nc1cccc(C2CCOC2)n1 (centres unmarked) [Example 72, N-(5-(2-methoxyethoxy)-4-((6-(tetrahydrofuran-3-yl)pyridin-2-yl)amino)pyridin-2-yl)acetamide]",≥ 8.00,6.00 to 7.00
"CC(=O)Nc1cc(Nc2cc(C)nc(C(C)(F)F)n2)c(OCC2CC2(F)F)cn1 (centres unmarked) [Example 74, N-(5-((2,2-difluorocyclopropyl)methoxy)-4-((2-(1,1-difluoroethyl)-6-methylpyrimidin-4-yl)amino)pyridin-2-yl)acetamide]",≥ 8.00,7.00 to 8.00
"COCCOc1cnc(NC(C)=O)cc1Nc1nccc(C(C)(F)F)n1 [Example 75, N-(4-((4-(1,1-difluoroethyl)pyrimidin-2-yl)amino)-5-(2-methoxyethoxy)pyridin-2-yl)acetamide]",≥ 8.00,6.00 to 7.00
COCCOc1cnc(NC(C)=O)cc1Nc1nc(C)cc(C(C)(F)F)n1 [Example 78],≥ 8.00,7.00 to 8.00
"COCCOc1cnc(NC(C)=O)cc1Nc1cc(C)nc(C(F)CF)n1 (centres unmarked) [Example 79, N-(4-((2-(1,2-difluoroethyl)-6-methylpyrimidin-4-yl)amino)-5-(2-methoxyethoxy)pyridin-2-yl)acetamide]",≥ 8.00,7.00 to 8.00
"COCCOc1cnc(NC(C)=O)cc1Nc1nc(C)cc(C(F)CF)n1 (centres unmarked) [Example 80, N-(4-((4-(1,2-difluoroethyl)-6-methylpyrimidin-2-yl)amino)-5-(2-methoxyethoxy)pyridin-2-yl)acetamide]",7.00 to 8.00,6.00 to 7.00

Compound,pIC50 (JH2 domain of human Tyk2),pIC50 (Tyk2)
"COCCOc1cnc(NC(C)=O)cc1Nc1cc(C)nc(C(C)(F)CF)n1 (centres unmarked) [Example 81, N-(4-((2-(1,2-difluoropropan-2-y1)-6-methylpyrimidin-4-yl)amino)-5-(2-methoxyethoxy)pyridin-2-yl)acetamide]",≥ 8.00,7.00 to 8.00
"COCCOc1cnc(NC(C)=O)cc1Nc1cc(C)nc(C(C)CF)n1 (centres unmarked) [Example 82, N-(4-((2-(1-fluoropropan-2-yl)-6-methylpyrimidin-4-yl)amino)-5-(2-methoxyethoxy)pyridin-2-yl)acetamide]",≥ 8.00,7.00 to 8.00
"CC(=O)Nc1cc(Nc2cc(C)nc(C(C)(F)F)n2)c(OC(C)C2CC2)cn1 (centres unmarked) [Example 83, N-(5-(1-cyclopropylethoxy)-4-((2-(1,1-difluoroethyl)-6-methylpyrimidin-4-yl)amino)pyridin-2-yl)acetamide]",≥ 8.00,6.00 to 7.00
"CC(=O)Nc1cc(Nc2cc(C)nc(C(C)(F)F)n2)c(OCC2(C#N)CC2)cn1 [Example 84, N-(5-((1-cyanocyclopropyl)methoxy)-4-((2-(1,1-difluoroethyl)-6-methylpyrimidin-4-yl)amino)pyridin-2-yl)acetamide]",≥ 8.00,7.00 to 8.00
"CC(=O)Nc1cc(Nc2cc(C)nc(C(C)(F)F)n2)c(OCC2CCO2)cn1 (centres unmarked) [Example 85, N-(4-((2-(1,1-difluoroethyl)-6-methylpyrimidin-4-yl)amino)-5-(oxetan-2-ylmethoxy)pyridin-2-yl)acetamide]",≥ 8.00,7.00 to 8.00
"CC(=O)Nc1cc(Nc2cc(C)nc(C(C)(F)F)n2)c(OC2COC2)cn1 [Example 86, N-(4-((2-(1,1-difluoroethyl)-6-methylpyrimidin-4-yl)amino)-5-(oxetan-3-yloxy)pyridin-2-yl)acetamide]",≥ 8.00,7.00 to 8.00
"COCCOc1cnc(NC(C)=O)cc1Nc1cncc(C(F)CF)n1 (centres unmarked) [Example 89, N-(4-((6-(1,2-difluoroethyl)pyrazin-2-yl)amino)-5-(2-methoxyethoxy)pyridin-2-yl)acetamide]",7.00 to 8.00,7.00 to 8.00
"C=C(F)c1cncc(Nc2cc(NC(C)=O)ncc2OCCOC)n1 [Example 90, N-(4-((6-(1-fluorovinyl)pyrazin-2-yl)amino)-5-(2-methoxyethoxy)pyridin-2-yl)acetamide]",≥ 8.00,6.00 to 7.00
"CCc1cc(Nc2cc(NC(=O)OC)ncc2OCCN(C)C)nc(C(C)(F)F)n1 [Example 92, methyl (4-((2-(1,1-difluoroethyl)-6-ethylpyrimidin-4-yl)amino)-5-(2-(dimethylamino)ethoxy)pyridin-2-yl)carbamate]",≥ 8.00,7.00 to 8.00
"CC(=O)Nc1cc(Nc2cc(OC3CC3)nc(C(C)(F)F)n2)c(OC(F)(F)F)cn1 [Example 93, N-(4-((6-cyclopropoxy-2-(1,1-difluoroethyl)pyrimidin-4-yl)amino)-5-(trifluoromethoxy)pyridin-2-yl)acetamide]",≥ 8.00,6.00 to 7.00
"CCOc1cnc(NC(C)=O)cc1Nc1cc(F)nc(C(C)(F)F)n1 [Example 94, N-(4-((2-(1,1-difluoroethyl)-6-fluoropyrimidin-4-yl)amino)-5-ethoxypyridin-2-yl)acetamide trifluoroacetate]",≥ 8.00,7.00 to 8.00
"CCOc1cnc(NC(C)=O)cc1Nc1cc(C)cc(C23COC(C2)C3)n1 [Example 95, N-(4-((6-(2-oxabicyclo[2.1.1]hexan-4-yl)-4-methylpyridin-2-yl)amino)-5-ethoxypyridin-2-yl)acetamide]",7.00 to 8.00,6.00 to 7.00
"CCOc1cnc(NC(C)=O)cc1Nc1cc(-c2cccnc2)nc(C(C)(F)F)n1 [Example 96, N-(4-((2-(1,1-difluoroethyl)-6-(pyridin-3-yl)pyrimidin-4-yl)amino)-5-ethoxypyridin-2-yl)acetamide]",≥ 8.00,7.00 to 8.00
"CCn1cc(-c2cc(Nc3cc(NC(C)=O)ncc3OC)nc(C(C)(F)F)n2)cn1 [Example 97, N-(4-((2-(1,1-difluoroethyl)-6-(1-ethyl-1H-pyrazol-4-yl)pyrimidin-4-yl)amino)-5-methoxypyridin-2-yl)acetamide]",7.00 to 8.00,7.00 to 8.00
"CC(=O)Nc1cc(Nc2cc(C)nc(C(C)(F)F)n2)c(Oc2cncc(C)n2)cn1 [Example 98, N-(4-((2-(1,1-difluoroethyl)-6-methylpyrimidin-4-yl)amino)-5-((6-methylpyrazin-2-yl)oxy)pyridin-2-yl)acetamide]",≤ 6.00,≤ 6.00
"CC(=O)Nc1cc(Nc2cc(C)nc(C(C)(F)F)n2)c(OCC2(F)CC2)cn1 [Example 99, N-(4-((2-(1,1-difluoroethyl)-6-methylpyrimidin-4-yl)amino)-5-((1-fluorocyclopropyl)methoxy)pyridin-2-yl)acetamide]",≥ 8.00,≥ 8.00
"CC(=O)Nc1cc(Nc2cc(C)nc(C(C)(F)F)n2)c(OCc2ccc(F)cn2)cn1 [Example 125, N-(4-((2-(1,1-difluoroethyl)-6-methylpyrimidin-4-yl)amino)-5-((5-fluoropyridin-2-yl)methoxy)pyridin-2-yl)acetamide]",≥ 8.00,7.00 to 8.00
